Experimental data taken from US20150004202A1, “ANTIBACTERIAL AGENT AGAINST PLANT DISEASE-CAUSING BACTERIA” (priority 2012, published 2015).
Converted amounts (≈) assume the structure as drawn. Read-outs that look alike come from different tables or passages of the source.

How the values were obtained:
[1] = system: Curtobacterium flaccumfaciens pv. flaccumfaciens standard strain (JCM1347), kidney bean wilt-causing bacterium; assay: MIC of various amino acid-containing particles, HI medium; type: cell-based; details: 24 hours after addition
[2] = system: tomato canker-causing bacteria standard strains (JCM1370, JCM1373); type: cell-based, Clavibacter michiganensis subsp. michiganensis; details: 24 hours after addition
[3] = system: field isolates listed in Table 6 (KNOB30 to KNOB110), bacteria pathogenic to crops; assay: MIC of various amino acid-containing particles, HI medium; type: cell-based; details: 24 hours after addition
Protocol: (1) Freeze-stored 4 strains were seeded on heart infusion medium and PSA medium. (2) Seeded bacteria were cultured at 25° C. for 48 hours. (3) The antibacterial activity was assessed by measurement of the minimum inhibitory concentration (MIC) in accordance with a broth microdilution method. HI medium prepared without agar was used as a liquid medium. […] The above-described antibacterial agents were added to the liquid media at various concentrations, respectively, and the cultured bacteria described in (2) were inoculated thereto, followed by judgement of the results 24 hours and 48 hours after inoculation. The tests were repeated three times (n=3).
The antibacterial activity of nanoparticles containing Gly, Arg, Asp, or Ala produced above was examined. As test bacteria, field isolates listed in Table 6, tomato canker-causing bacteria standard strains (JCM1370, JCM1373), and kidney bean wilt-causing bacterium Curtobacterium flaccumfaciens pv. flaccumfaciens standard strain (JCM1347) were used.

[4] = system: Ralstonia solanacearum (field isolates KNOB38, KNOB39), eggplant wilt-causing bacteria; assay: microbe, parasite or virus in culture; type: cell-based
[5] = system: Clavibacter michiganensis subsp. michiganensis (field isolates KNOB16, KNOB23), tomato canker-causing bacteria; assay: MIC by broth microdilution (investigation of measurement conditions); type: cell-based
[6] = Curtobacterium flaccumfaciens, read-out: MIC
[7] = 24 h, KNOB30, HI medium, read-out: MIC
[8] = 24 h, KNOB33, HI medium, read-out: MIC
[9] = 24 h, KNOB67, HI medium, read-out: MIC
[10] = 24 h, KNOB75, HI medium, read-out: MIC
[11] = 24 h, KNOB105, HI medium, read-out: MIC
[12] = 24 h, KNOB106, HI medium, read-out: MIC
[13] = 24 h, KNOB108, HI medium, read-out: MIC
[14] = 24 h, KNOB110, HI medium, read-out: MIC
[15] = Clavibacter michiganensis, 24 h, KNOB16, HI medium, 24 H later
[16] = Clavibacter michiganensis, 24 h, KNOB16, PSA medium, 24 H later
[17] = Clavibacter michiganensis, 24 h, KNOB23, HI medium, 24 H later
[18] = Clavibacter michiganensis, 24 h, KNOB23, PSA medium, 24 H later
[19] = Clavibacter michiganensis, 48 h, KNOB16, HI medium, 48 H later
[20] = Clavibacter michiganensis, 48 h, KNOB16, PSA medium, 48 H later
[21] = Clavibacter michiganensis, 48 h, KNOB23, HI medium, 48 H later
[22] = Clavibacter michiganensis, 48 h, KNOB23, PSA medium, 48 H later

CC1(C)S[C@@H]2[C@H](NC(=O)[C@H](N)c3ccccc3)C(=O)N2[C@H]1C(=O)O [ABPC, ampicillin]
MIC [1, 6]: 2 µg/mL | MIC ([2]; JCM1370, HI medium): 0.5 µg/mL (≈ 1.43 µM) | MIC ([2]; JCM1373, HI medium): 1 µg/mL (≈ 2.86 µM) | MIC [3, 7]: 0.5 µg/mL | MIC [3, 8]: < 0.25 µg/mL | MIC ([3]; 24 h, KNOB64, HI medium): < 0.25 µg/mL | MIC [3, 9]: < 0.25 µg/mL | MIC [3, 10]: 0.5 µg/mL | MIC [3, 11]: < 0.25 µg/mL | MIC [3, 12]: < 0.25 µg/mL | MIC [3, 13]: 0.5 µg/mL | MIC [3, 14]: < 0.25 µg/mL | MIC ([4]; KNOB39, HI medium, 24 H later): 0.5 µg/mL (≈ 1.43 µM) | MIC ([4]; KNOB39, HI medium, 48 H later): 0.5 µg/mL (≈ 1.43 µM) | MIC ([4]; Ralstonia solanacearum, 24 h): 0.5 µg/mL (≈ 1.43 µM) | MIC ([4]; Ralstonia solanacearum, 48 h): 0.5 µg/mL (≈ 1.43 µM) | MIC [5, 15]: 0.25 µg/mL (≈ 0.715 µM) | MIC [5, 16]: 0.5 µg/mL (≈ 1.43 µM) | MIC [5, 17]: 0.25 µg/mL (≈ 0.715 µM) | MIC [5, 18]: 0.5 µg/mL (≈ 1.43 µM) | MIC [5, 19]: 0.25 µg/mL (≈ 0.715 µM) | MIC [5, 20]: 1 µg/mL (≈ 2.86 µM) | MIC [5, 21]: 0.25 µg/mL (≈ 0.715 µM) | MIC [5, 22]: 0.5 µg/mL (≈ 1.43 µM)

CCO [EtOH, ethanol]
MIC [1]: 15 µg/mL | MIC ([2]; JCM1370, HI medium): 15 µg/mL (≈ 326 µM) | MIC ([2]; JCM1373, HI medium): 30 µg/mL (≈ 651 µM) | MIC ([3]; KNOB30, HI medium): 30 µg/mL | MIC ([3]; KNOB33, HI medium): 30 µg/mL | MIC ([3]; KNOB64, HI medium): 30 µg/mL | MIC ([3]; KNOB67, HI medium): 30 µg/mL | MIC ([3]; KNOB75, HI medium): 60 µg/mL | MIC ([3]; KNOB105, HI medium): 15 µg/mL | MIC ([3]; KNOB106, HI medium): 7.5 µg/mL | MIC ([3]; KNOB108, HI medium): 15 µg/mL | MIC ([3]; KNOB110, HI medium): 15 µg/mL | MIC ([4]; KNOB38, HI medium, 24 H later): 7.5 µg/mL (≈ 163 µM) | MIC ([4]; KNOB38, HI medium, 48 H later): 15 µg/mL (≈ 326 µM) | MIC ([4]; KNOB39, HI medium, 24 H later): 7.5 µg/mL (≈ 163 µM) | MIC ([4]; KNOB39, HI medium, 48 H later): 7.5 µg/mL (≈ 163 µM) | antibacterial activity against eggplant wilt-causing bacteria compared with KAS ([4]; comparison of MIC values of Table 5): stronger than KAS and nanoparticles | MIC ([5]; KNOB16, HI medium, 24 H later): 15 µg/mL (≈ 326 µM) | MIC ([5]; KNOB16, HI medium, 48 H later): 30 µg/mL (≈ 651 µM) | MIC ([5]; KNOB16, PSA medium, 24 H later): 60 µg/mL (≈ 1300 µM) | MIC ([5]; KNOB16, PSA medium, 48 H later): 7.5 µg/mL (≈ 163 µM) | MIC ([5]; KNOB23, HI medium, 24 H later): 15 µg/mL (≈ 326 µM) | MIC ([5]; KNOB23, HI medium, 48 H later): 30 µg/mL (≈ 651 µM) | MIC ([5]; KNOB23, PSA medium, 24 H later): 7.5 µg/mL (≈ 163 µM) | MIC ([5]; KNOB23, PSA medium, 48 H later): 15 µg/mL (≈ 326 µM)

C[C@H]1O[C@H](O[C@H]2[C@H](O)[C@@H](O)[C@@H](O)[C@H](O)[C@@H]2O)[C@@H](N)C[C@@H]1NC(=N)C(=O)O [KAS, kasugamycin]
MIC [1]: 128 µg/mL | MIC ([2]; JCM1370, HI medium): 128 µg/mL (≈ 337 µM) | MIC ([2]; JCM1373, HI medium): 64 µg/mL (≈ 169 µM) | MIC ([3]; KNOB30, HI medium): 32 µg/mL | MIC ([3]; KNOB33, HI medium): 64 µg/mL | MIC ([3]; KNOB64, HI medium): 64 µg/mL | MIC ([3]; KNOB67, HI medium): 64 µg/mL | MIC ([3]; KNOB75, HI medium): 64 µg/mL | MIC ([3]; KNOB105, HI medium): 32 µg/mL | MIC ([3]; KNOB106, HI medium): 32 µg/mL | MIC ([3]; KNOB108, HI medium): 32 µg/mL | MIC ([3]; KNOB110, HI medium): 32 µg/mL | MIC ([4]; KNOB38, HI medium, 24 H later): 8 µg/mL (≈ 21.1 µM) | MIC ([4]; KNOB38, HI medium, 48 H later): 16 µg/mL (≈ 42.2 µM) | MIC ([4]; KNOB39, HI medium, 24 H later): 8 µg/mL (≈ 21.1 µM) | MIC ([4]; KNOB39, HI medium, 48 H later): 16 µg/mL (≈ 42.2 µM) | MIC ([5]; KNOB16, HI medium, 24 H later): 32 µg/mL (≈ 84.4 µM) | MIC ([5]; KNOB16, HI medium, 48 H later): 32 µg/mL (≈ 84.4 µM) | MIC ([5]; KNOB16, PSA medium, 24 H later): 16 µg/mL (≈ 42.2 µM) | MIC ([5]; KNOB16, PSA medium, 48 H later): 16 µg/mL (≈ 42.2 µM) | MIC ([5]; KNOB23, HI medium, 24 H later): 32 µg/mL (≈ 84.4 µM) | MIC ([5]; KNOB23, HI medium, 48 H later): 32 µg/mL (≈ 84.4 µM) | MIC ([5]; KNOB23, PSA medium, 24 H later): 16 µg/mL (≈ 42.2 µM) | MIC ([5]; KNOB23, PSA medium, 48 H later): 32 µg/mL (≈ 84.4 µM)

[H]/N=C(/N)N[C@H]1[C@H](O)[C@@H](O)[C@H](O[C@@H]2O[C@@H](C)[C@](O)(C=O)[C@H]2O[C@@H]2O[C@@H](CO)[C@H](O)[C@@H](O)[C@@H]2NC)[C@@H](N/C(N)=N\[H])[C@@H]1O [ST, streptomycin]
MIC [1, 6]: 0.39 µg/mL | MIC ([2]; JCM1370, HI medium): 3.9 µg/mL (≈ 6.71 µM) | MIC ([2]; JCM1373, HI medium): 7.8 µg/mL (≈ 13.4 µM) | MIC [3, 7]: 1.56 µg/mL | MIC [3, 8]: 0.78 µg/mL | MIC ([3]; 24 h, KNOB64, HI medium): 1.56 µg/mL | MIC [3, 9]: 1.56 µg/mL | MIC [3, 10]: 1.56 µg/mL | MIC [3, 11]: 1.56 µg/mL | MIC [3, 12]: 1.56 µg/mL | MIC [3, 13]: 1.56 µg/mL | MIC [3, 14]: 1.56 µg/mL | MIC ([4]; KNOB39, HI medium, 24 H later): 8 µg/mL (≈ 13.8 µM) | MIC ([4]; KNOB39, HI medium, 48 H later): 8 µg/mL (≈ 13.8 µM) | MIC ([4]; Ralstonia solanacearum, 24 h): 8 µg/mL (≈ 13.8 µM) | MIC ([4]; Ralstonia solanacearum, 48 h): 8 µg/mL (≈ 13.8 µM) | MIC [5, 15]: 2 µg/mL (≈ 3.44 µM) | MIC [5, 16]: 4 µg/mL (≈ 6.88 µM) | MIC [5, 17]: 1 µg/mL (≈ 1.72 µM) | MIC [5, 18]: 4 µg/mL (≈ 6.88 µM) | MIC [5, 19]: 2 µg/mL (≈ 3.44 µM) | MIC [5, 20]: 8 µg/mL (≈ 13.8 µM) | MIC [5, 21]: 1 µg/mL (≈ 1.72 µM) | MIC [5, 22]: 4 µg/mL (≈ 6.88 µM)
